Test results: patent publication US4791200A, “2-substituted-4-aryl-substituted thiazoles” (Ortho Pharmaceutical Corporation, priority 1987, dated 1988)
Where two headings read alike, the source gives them in different places.

Columns and labels:
parietal cells = experiment: Isolated Parietal Cell Assay (14C-aminopyrine accumulation, histamine or dibutyryl cAMP stimulated); assay type: cell-based, rabbit; conditions: Oryctolagus cuniculus
Method: The isolated parietal cell assay was conducted using the procedures of Batzri, S. et al., Biochemica et Biophysica Acta 508, 328 (1978) and Soll, A. H. Am. J. Physiol. 238, G366 (1980). Basically, parietal cells were isolated from the fundic mucosa of rabbit stomachs by a four-stage collagenase digestion process. The supernatant fractions from the last two stages of this process contain the individual parietal cells. This cell suspension was centrifuged and reconstituted in a modified Hank's buffer to contain 1-2×10^6 cells/ml. […] This accumulation was stimulated by histamine and was blocked by H2 antagonists. The cells were incubated with 0.4-0.5×10^6 cpm ^14 C-AP, with various concentrations of histamine as a stimulant, 1×10^-5 M isobutylmethylxanthine, and the test compound added in a 20 μl volume of buffer or DMSO. The flasks were incubated in a shaking water bath at 37° C. for 20 minutes. Two aliquots were then taken from each flask and cell pellets were collected by centrifugation. The pellets were solubilized with Protosol (New England Nuclear) and radioactivity determined by liquid scintillation spectrometry. Data is presented as the IC50 vhist, the concentration of compound required to inhibit ^14 C-AP accumulation in the histamine stimulated parietal cell by 50%.
When dibutyryl cAMP was used to stimulate the cells instead of histamine, a similar inhibition of ^14 C-AP accumulation was measured and the data are presented as the IC50 vcAMP, the concentration required to inhibit ^14 C-AP accumulation in the cAMP stimulated parietal cell by 50%.

[1] = target: T1, parietal cell H^+ K^+ ATPase (Oryctolagus cuniculus, UniProt P27112); experiment: Inhibition of Parietal Cell H^+ K^+ ATPase; assay type: biochemical, New Zealand white rabbits; conditions: read-out: % Inhibition at Concentration; for inhibition at 100 µM: at 10^-4 M
T1 construct: determined in fundic mucosa from New Zealand white rabbits which were homogenized; from tissue; host or cells: fundic mucosa of New Zealand white rabbits, homogenized; membrane protein
Method: The activity was measured in a 1 ml incubation volume containing 50 mM Tris pH 7.4, 2 mM MgCl2, 2 mM Na2 ATP, with or without 20 mM KCl and vehicle control (dimethylsulfoxide) or test compound added in a 0.02 ml volume. Typically, 20-50 μg membrane protein was added and the tubes were preincubated with test compound for 10 minutes at 37° C. Substrate, Na2 ATP, was then added and the tubes were incubated for another 15 minutes at 37° C. The reaction was stopped by the addition of 1 ml 14% trichloroacetic acid and the samples were centrifuged at 2,000 ×g for 10 minutes. The amount of inorganic phosphate present in an aliquot of supernatant was determined. H^+ K^+ ATPase activity was determined after correcting for the basal (Mg^++ only) enzyme activity present in the membrane preparation.

[2] = tested on: acid output (gastric secretion); experiment: Gastric Secretion (pylorus ligation, modified Shay); assay type: in vivo, male Charles River Sprague Dawley derived rats; conditions: i.d. or s.c., 4 hours after ligation; for % Acid Secreted at mpK: at 20 mpK
Method: The inhibitory activity of the compounds on acid output was tested using pylorus ligation in a modification of the procedure of Shay, H. et al., Gastroenterology 26, 906 (1954). Basically, male Charles River Sprague Dawley derived rats weighing 150-300 grams were deprived of food but not water for 18-24 hours prior to use. Water was withheld during the experiment, however. The rats were weighed, anesthetized with ether and the pylorus ligated according to the method of Shay et al., supra. Treatment or vehicle control was then administered intraduodenally (i.d.) or subcutaneously (s.c.). Rats were housed two/cage and sacrificed with CO2 four hours after ligation. The stomachs were removed, rinsed, and contents emptied into a graduated centrifuge tube. The tubes were centrifuged, the volume of gastric juice recorded, and any samples obviously contaminated by feces, food or blood were eliminated. A 1 ml aliquot of gastric juice was titrated with 0.1N NaOH to a pH of 7.0-7.4. The volume of gastric juice secreted, the acid concentration, and the product of the volume times the concentration, i.e., the total amount of acid secreted, were measured.

[3] = 20 min, histamine stimulated, 37° C., 20 minutes, read-out: IC50 vhist (inhibition of 14C-AP accumulation in the histamine stimulated parietal cell)
[4] = dibutyryl cAMP stimulated, read-out: IC50 vcAMP (inhibition of 14C-AP accumulation in the cAMP stimulated parietal cell)

T1 sequence (P27112 2-1035 limits assumed): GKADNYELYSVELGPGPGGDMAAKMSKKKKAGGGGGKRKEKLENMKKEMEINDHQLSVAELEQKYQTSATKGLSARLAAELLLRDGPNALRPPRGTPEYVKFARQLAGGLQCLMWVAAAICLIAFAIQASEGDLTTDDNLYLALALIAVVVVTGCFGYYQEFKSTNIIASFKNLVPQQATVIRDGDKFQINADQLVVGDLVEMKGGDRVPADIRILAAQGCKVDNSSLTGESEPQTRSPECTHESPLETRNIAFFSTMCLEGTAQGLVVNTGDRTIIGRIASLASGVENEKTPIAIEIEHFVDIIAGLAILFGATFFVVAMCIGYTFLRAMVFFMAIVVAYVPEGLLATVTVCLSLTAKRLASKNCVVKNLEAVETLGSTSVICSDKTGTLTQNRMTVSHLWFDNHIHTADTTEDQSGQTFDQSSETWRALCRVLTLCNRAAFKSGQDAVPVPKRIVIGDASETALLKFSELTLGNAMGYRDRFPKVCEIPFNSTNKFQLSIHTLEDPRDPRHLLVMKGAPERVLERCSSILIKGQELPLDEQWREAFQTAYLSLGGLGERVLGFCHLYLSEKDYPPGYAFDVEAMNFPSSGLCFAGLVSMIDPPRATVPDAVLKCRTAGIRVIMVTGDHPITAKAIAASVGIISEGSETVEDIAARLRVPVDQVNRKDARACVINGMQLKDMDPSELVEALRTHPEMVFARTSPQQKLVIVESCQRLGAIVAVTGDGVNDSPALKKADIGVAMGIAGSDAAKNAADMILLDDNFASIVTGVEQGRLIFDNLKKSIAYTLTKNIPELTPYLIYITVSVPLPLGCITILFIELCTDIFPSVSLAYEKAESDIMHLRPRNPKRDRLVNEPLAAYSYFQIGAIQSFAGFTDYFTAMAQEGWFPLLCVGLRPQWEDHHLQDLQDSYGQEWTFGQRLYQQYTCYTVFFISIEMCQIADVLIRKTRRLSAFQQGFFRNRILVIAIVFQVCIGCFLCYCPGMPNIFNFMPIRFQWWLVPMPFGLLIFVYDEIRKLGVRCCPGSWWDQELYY
T1 sequence (P18597 whole entry partner): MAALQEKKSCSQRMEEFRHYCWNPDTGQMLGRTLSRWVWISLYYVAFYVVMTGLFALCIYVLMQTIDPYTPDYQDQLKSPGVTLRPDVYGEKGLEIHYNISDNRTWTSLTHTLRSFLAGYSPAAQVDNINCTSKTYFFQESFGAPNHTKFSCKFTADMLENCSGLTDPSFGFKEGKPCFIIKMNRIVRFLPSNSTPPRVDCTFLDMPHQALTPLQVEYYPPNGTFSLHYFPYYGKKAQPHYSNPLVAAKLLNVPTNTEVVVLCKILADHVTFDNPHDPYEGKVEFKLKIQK

Row | Structure (SMILES) | IC50 (parietal cells; [3]) [nM] | inhibition at 100 µM [1] [%] | response vs control in vivo at 40 mg/kg ([2]; Rattus norvegicus, at 40 mpK, read-out: % Acid Secreted at mpK) [%] | IC50 (parietal cells; [4]) [nM] | % Acid Secreted at mpK [2] [%] | inhibition at 10.5 µM ([1]; at 10.5 μM) [%]
1 | c1ccc(-c2nc(-c3ccc(OCCCn4cncn4)cc3)cs2)cc1 [Example 24, 4-[4-(1,2,4-Triazol-1-yl)propoxyphenyl]-2-phenylthiazole] | 10000 | 36 | 83 |  |  | 
2 | CCCCN(CCCC)CCCOc1ccc(-c2nc(-c3ccccc3)sc2CC)cc1 [Example 25, 5-Ethyl-4-(4-dibutylaminopropoxyphenyl)-2-phenylthiazole] | 340 | 5 |  | 240 | 8 | 
3 | CCCCN(CCCC)CCCOc1ccc(-c2csc(-c3ccccc3)n2)cc1C [Example 26] | 300 | 23 |  | 290 | 64 | 
4 | c1ccc(-c2nc(-c3cccc(OCCCn4ccnc4)c3)cs2)cc1 [Example 27] | 320 |  |  | 290 | 13 | 50
